Results: patent US7566531B2, “Selective whole cell quartz crystal microbalance biosensors” (University of Massachusetts, priority 2003, dated 2009)

What was measured:
[1] = tested on: normal capillary endothelial cells; assay: cell removal from QCM by PBS-EGTA; type: cell-based
Method: The above-described QCM biosensor was used to study cells and the ECM made by the cells. 50,000 normal capillary endothelial cells were seeded onto the QCM and maintained in DMEM-10% Calf Serum for 3-4 days to synthesize ECM. The cells were then removed by incubating in PBS-0.25 mM EGTA three times for 6 hours according to the method described in Paige et al., Cell Dev. Biol., 27A:151-157, 1991. During this process, the frequency and resistance of the QCM were recorded and plotted.
To corroborate this discovery, immunocytochemistry was carried out to examine actin stress fiber in the cells using standard techniques.

MCF-7 cells [2] = assay: conventional proliferation assays and apoptosis assays; type: cell-based, human
Method: (§1) To confirm that the changes in the QCM frequency and resistance are associated with changes in cell growth or apoptosis, conventional proliferation assays and apoptosis assays were conducted on MDA-MB-231 cells and MCF-7 cells treated with docetaxel or paclitaxel. […] For example, both drugs reduced the mitotic index of MCF-7 cells and eliminated that of MDA-MB-231.

MDA-MB-231 cells [3] = assay: as above; type: cell-based, human
Method: as §1

MCF-7 cells [4] = assay: whole cell QCM biosensor, Δf and ΔR after drug addition; type: cell-based, human; details: for QCM frequency decrease, Phase I / change in QCM resistance, Phase I: hour 0 to hour 6 post drug addition; for QCM frequency decrease, Phase I / change in QCM resistance, Phase I / QCM frequency increase, Phase II: 0.1 μM docetaxel, 10 μM paclitaxel; for QCM frequency increase, Phase II: hour 6 to hour 20 post drug addition
Method: (§2) Normal human mammary epithelial cells (HMEC), estrogen receptor-positive human breast cancer cells (MCF-7, a non-metastatic, malignant mammary epithelial cells), and estrogen receptor-negative metastatic human breast cancer cells (MDA-MB-231) were used for this study. These commercially available cells were cultured and harvested as recommended by the supplier, American Type Cell Cultures (ATCC). The cells were then seeded onto the chemically modified conducting surface of separate whole cell QCM biosensors and were allowed to reach the steady state. In general, it takes about 12-14 hours (hours) or less (as quick as within 6 hours) for the cells to reach the steady state on the new selective whole cell QCM biosensors. In contrast, on a QCM biosensor without the selective substrate, it takes about 20-24 hours for the cells to reach steady state. Cell number-dependent characteristic Δf and ΔR shift values of these cells were recorded as described in Marx et al., Biosens. Bioelectron., 16(9-12):773-82, 2001.
(§3) MCF-7 cells, which are resistant to paclitaxel treatment and MDA-MB-231 cells, which are sensitive to paclitaxel treatment were seeded onto two separate whole cell QCM biosensors and allowed to reach steady state as described above.
(§4) Paclitaxel (Sigma Chemical Company) was dissolved in dimethylsulfoxide to make a stock solution. The stock solution was properly diluted in culture media before being added to the cells on the QCM biosensors, so that the final concentration was 10 μM. […] After adding paclitaxel, the Δf and ΔR of the QCMs were monitored and recorded hourly.
(§5) MCF-7 cells and MDA-MB-231 cells were cultured and seeded onto QCM biosensors according to the method described above. The cells were then incubated with 0.1 μM docetaxel (Aventis Pharmaceuticals) and 10 μM paclitaxel. The changes in frequencies and resistances of the QCMs were monitored for 24 hours.

MDA-MB-231 cells [5] = assay: as above; type: cell-based, human; details: for QCM frequency decrease, Phase I / increase in QCM resistance, Phase I: hour 0 to hour 6 post drug addition; for QCM frequency decrease, Phase I / increase in QCM resistance, Phase I / QCM frequency increase, Phase II: 0.1 μM docetaxel, 10 μM paclitaxel; for QCM frequency increase, Phase II: hour 6 to hour 20 post drug addition
Method: as §2, §3, §4, §5

MCF-7 cells [6] = assay: apoptosis assay (DAPI staining; Apoptotic Index and Mitotic Index); type: cell-based, human
Method: (§6) Duplicate MCF-7 or MDA-MB-231 cells that were treated with the same dose of paclitaxel were analyzed using an apoptosis assay as described in Warren M. et al., Free Radic Biol Med. 29:537-47, 2000. Briefly, cells were fixed sequentially in 50% and 100% methanol for 5 minutes each. The cells were then stained with 4,6,diamidino-2-phenylindole (DAPI; Sigma) at a final concentration of 0.5 mg/ml at 37° C. for 30 minutes. After being air-dried and mounted with 1:3 PBS-glycerol, chromatin distribution in the cells were visualized by fluorescence. […] Apoptosis was scored as the percentage of apoptotic cells in relation to the total cell number (i.e., Apoptotic Index), corrected for baseline apoptosis. Mitotic cells were also identified and mitosis was scored as the percentage of the mitotic cells in relation to all of the cells (i.e., Mitotic Index).

MDA-MB-231 cells [7] = assay: as above; type: cell-based, human
Method: as §6

MCF-7 cells [8] = assay: as above; type: cell-based, human; details: 10 μM
[9] = PBS-0.25 mM EGTA, EGTA 1 at hour 112 after cell seeding
[10] = 10 μM, 8 hours post paclitaxel addition
[11] = 10 μM, 50 hours post paclitaxel addition
[12] = 10 μM, between 8 and 50 hours post addition

`O=C(O)CN(CCOCCOCCN(CC(=O)O)CC(=O)O)CC(=O)O` [EGTA] was tested, and the “ΔR on initial exposure” value [1, 9] was “large decrease”, the “Δf on initial exposure” value [1, 9] was “large increase” and the “time for frequency and resistance to return to stable values” ([1]; PBS-0.25 mM EGTA, first exposure) was no more than 2 h. The “cell detachment from the surface” value ([1]; minute 120 after exposing to EGTA) was “most cells had detached”.
`CC(=O)O[C@@]12CO[C@@H]1C[C@H](O)[C@@]1(C)C(=O)[C@H](O)C3=C(C)[C@@H](OC(=O)[C@H](O)[C@@H](NC(=O)OC(C)(C)C)c4ccccc4)C[C@@](O)([C@@H](OC(=O)c4ccccc4)[C@H]21)C3(C)C` [docetaxel] was tested, and the apoptosis (MCF-7 cells [2]) was “induced apoptosis”, the cell growth (MCF-7 cells [2]) was “inhibited cell growth” and the mitotic index (MCF-7 cells [2]) was “reduced”. The apoptosis (MDA-MB-231 cells [3]) was “induced apoptosis”, the cell growth (MDA-MB-231 cells [3]) was “inhibited cell growth” and the mitotic index (MDA-MB-231 cells [3]) was “eliminated”. The “QCM frequency decrease, Phase I” value (MCF-7 cells [4]) was −50 Hz, the “change in QCM resistance, Phase I” value (MCF-7 cells [4]) was “little change” and the “QCM frequency increase, Phase II” value (MCF-7 cells [4]) was 10-20 Hz. The “QCM frequency decrease, Phase I” value (MDA-MB-231 cells [5]) was −70 Hz, the “increase in QCM resistance, Phase I” value (MDA-MB-231 cells [5]) was 20 Ohm and the “QCM frequency increase, Phase II” value (MDA-MB-231 cells [5]) was 98 Hz.
In the case of `CC(=O)O[C@H]1C(=O)[C@@]2(C)[C@H]([C@H](OC(=O)c3ccccc3)[C@]3(O)C[C@H](OC(=O)[C@H](O)[C@@H](NC(=O)c4ccccc4)c4ccccc4)C(C)=C1C3(C)C)[C@]1(OC(C)=O)CO[C@@H]1C[C@@H]2O` [paclitaxel], the apoptosis (MCF-7 cells [2]) is reported as “induced apoptosis”, the cell growth (MCF-7 cells [2]) is reported as “inhibited cell growth” and the mitotic index (MCF-7 cells [2]) is reported as “reduced”. For the same compound, the apoptosis (MDA-MB-231 cells [3]) was “induced apoptosis”, the cell growth (MDA-MB-231 cells [3]) was “inhibited cell growth” and the mitotic index (MDA-MB-231 cells [3]) was “eliminated”. The “Apoptotic Index (AI)” value (MCF-7 cells [6]; 3 hours, 10 uM) was less than 1%, the “Mitotic Index (MI)” value (MCF-7 cells [6]; 3 hours, 10 uM) was 1% and the “Apoptotic Index (AI)” value (MCF-7 cells [6]; 6 hours, 0.1 uM) was 1%. The “Mitotic Index (MI)” value (MCF-7 cells [6]; 6 hours, 0.1 uM) was 1%, the “Apoptotic Index (AI)” value (MCF-7 cells [6]; 6 hours, 1.0 uM) was 4.5% and the “Mitotic Index (MI)” value (MCF-7 cells [6]; 6 hours, 1.0 uM) was 0%. For the same compound, the “Apoptotic Index (AI)” value (MCF-7 cells [6]; 6 hours, 10 uM) was 11%, the “Mitotic Index (MI)” value (MCF-7 cells [6]; 6 hours, 10 uM) was 0% and the “Apoptotic Index (AI)” value (MCF-7 cells [6]; 12 hours, 10 uM) was 25%. For the same compound, the “Mitotic Index (MI)” value (MCF-7 cells [6]; 12 hours, 10 uM) was 0%, the “Apoptotic Index (AI)” value (MCF-7 cells [6]; 24 hours, 10 uM) was 33% and the “Mitotic Index (MI)” value (MCF-7 cells [6]; 24 hours, 10 uM) was 0%. For the same compound, the “start of obvious cell shape change and eventually apoptosis, time post paclitaxel addition” value (MDA-MB-231 cells [7]; 10 μM) was 8 h, the “Apoptotic Index (AI)” value (MDA-MB-231 cells [7]; 3 hours, 10 uM) was less than 1% and the “Mitotic Index (MI)” value (MDA-MB-231 cells [7]; 3 hours, 10 uM) was 0%. The “Apoptotic Index (AI)” value (MDA-MB-231 cells [7]; 6 hours, 0.1 uM) was 1%, the “Mitotic Index (MI)” value (MDA-MB-231 cells [7]; 6 hours, 0.1 uM) was 0% and the “Apoptotic Index (AI)” value (MDA-MB-231 cells [7]; 6 hours, 1.0 uM) was 8.5%. The “Mitotic Index (MI)” value (MDA-MB-231 cells [7]; 6 hours, 1.0 uM) was 0%, the “Apoptotic Index (AI)” value (MDA-MB-231 cells [7]; 6 hours, 10 uM) was 10% and the “Mitotic Index (MI)” value (MDA-MB-231 cells [7]; 6 hours, 10 uM) was 0%. The “Apoptotic Index (AI)” value (MDA-MB-231 cells [7]; 12 hours, 10 uM) was 40%, the “Mitotic Index (MI)” value (MDA-MB-231 cells [7]; 12 hours, 10 uM) was 0% and the “Apoptotic Index (AI)” value (MDA-MB-231 cells [7]; 24 hours, 10 uM) was 84%. The “Mitotic Index (MI)” value (MDA-MB-231 cells [7]; 24 hours, 10 uM) was 0%, the “start of obvious cell shape change and eventually apoptosis, time post paclitaxel addition” value (MCF-7 cells [8]) was 8 h and the “ΔR decrease immediately after adding the drug” value (MCF-7 cells [4]; 10 μM) was 50 Ω. The ΔR (MCF-7 cells [4]; [10]) was “about 40 Ω”, the Δf (MCF-7 cells [4]; [10]) was −300 Hz and the ΔR (MCF-7 cells [4]; [11]) was “about 20 Ω”. The Δf (MCF-7 cells [4]; [11]) was −260 Hz, the “magnitude of change of ΔR” value (MCF-7 cells [4]; [12]) was 20 Ω and the “magnitude of change of Δf” value (MCF-7 cells [4]; [12]) was 40 Hz. The “QCM frequency decrease, Phase I” value (MCF-7 cells [4]) was −20 Hz, the “change in QCM resistance, Phase I” value (MCF-7 cells [4]) was “little change” and the “QCM frequency increase, Phase II” value (MCF-7 cells [4]) was 50 Hz. For the same compound, the “ΔR increase immediately after adding the drug” value (MDA-MB-231 cells [5]; 10 μM) was “about 70 Ω”, the ΔR (MDA-MB-231 cells [5]; [10]) was “about 80 Ω” and the Δf (MDA-MB-231 cells [5]; [10]) was −250 Hz. For the same compound, the ΔR (MDA-MB-231 cells [5]; [11]) was “about 40 Ω”, the Δf (MDA-MB-231 cells [5]; [11]) was −110 Hz and the “magnitude of change of ΔR” value (MDA-MB-231 cells [5]; [12]) was 40 Ω. The “magnitude of change of Δf” value (MDA-MB-231 cells [5]; [12]) was 140 Hz, the “QCM frequency decrease, Phase I” value (MDA-MB-231 cells [5]) was −20 Hz and the “increase in QCM resistance, Phase I” value (MDA-MB-231 cells [5]) was “little change”. For the same compound, the “QCM frequency increase, Phase II” value (MDA-MB-231 cells [5]) was 60 Hz.
